Test results as given in ChEMBL document CHEMBL1629662, “Antimicrobial activity of prulifloxacin tested against a worldwide collection of gastroenteritis-producing pathogens, including those causing traveler's diarrhea” (2009).
In brackets after ≈: the same amount, converted by molar mass.

Assays:
Campylobacter sp. [1] = assay: Antibacterial activity against Campylobacter sp. assessed as growth inhibition at 0.016 ug/ml by broth microdilution method; format: functional
Campylobacter sp. [2] = assay: Antibacterial activity against Campylobacter sp. assessed as growth inhibition at 0.03 ug/ml by broth microdilution method; format: functional
Campylobacter sp. [3] = assay: Antibacterial activity against Campylobacter sp. assessed as growth inhibition at 0.06 ug/ml by broth microdilution method; format: functional
Campylobacter sp. [4] = assay: Antibacterial activity against Campylobacter sp. assessed as growth inhibition at 0.25 ug/ml by broth microdilution method; format: functional
Campylobacter sp. [5] = assay: Antibacterial activity against Campylobacter sp. assessed as growth inhibition at 0.5 ug/ml by broth microdilution method; format: functional
Campylobacter sp. [6] = assay: Antibacterial activity against Campylobacter sp. assessed as growth inhibition at 2 ug/ml by broth microdilution method; format: functional
Campylobacter sp. [7] = assay: Antibacterial activity against Campylobacter sp. assessed as growth inhibition at =>4 ug/ml by broth microdilution method; format: functional
Escherichia coli [8] = assay: Antibacterial activity against Escherichia coli by broth microdilution method; format: functional
Salmonella typhimurium = assay: Antibacterial activity against Salmonella enterica serovar Typhimurium by broth microdilution method; format: functional, Salmonella enterica subsp. enterica serovar Typhimurium
Salmonella paratyphi = assay: Antibacterial activity against Salmonella enterica serovar Paratyphi assessed as percent susceptible isolates by broth microdilution method; format: functional, Salmonella enterica subsp. enterica serovar Paratyphi A
[9] = Antibacterial activity against Salmonella enterica serovar Choleraesuis by broth microdilution method; format: functional, Salmonella enterica subsp. enterica serovar Choleraesuis
[10] = Antibacterial activity against Salmonella enterica serovar Virchow by broth microdilution method; format: functional, Salmonella enterica subsp. enterica serovar Virchow
Shigella sonnei = assay: Antibacterial activity against Shigella sonnei by broth microdilution method; format: functional
Shigella boydii = assay: Antibacterial activity against Shigella boydii by broth microdilution method; format: functional
Shigella dysenteriae = assay: Antibacterial activity against Shigella dysenteriae by broth microdilution method; format: functional
Aeromonas hydrophila = assay: Antibacterial activity against Aeromonas hydrophila assessed as percent resistant isolates by broth microdilution method; format: functional
Aeromonas caviae = assay: Antibacterial activity against Aeromonas caviae assessed as percent susceptible isolates by broth microdilution method; format: functional
Aeromonas sobria [11] = assay: Antibacterial activity against Aeromonas sobria assessed as percent susceptible isolates by broth microdilution method; format: functional
Aeromonas sobria [12] = assay: Antibacterial activity against Aeromonas sobria assessed as percent resistant isolates by broth microdilution method; format: functional
Plesiomonas shigelloides [13] = assay: Antibacterial activity against Plesiomonas shigelloides by broth microdilution method; format: functional
Plesiomonas shigelloides [14] = assay: Antibacterial activity against Plesiomonas shigelloides assessed as percent susceptible isolates by broth microdilution method; format: functional
Plesiomonas shigelloides [15] = assay: Antibacterial activity against Plesiomonas shigelloides assessed as percent resistant isolates by broth microdilution method; format: functional
Vibrio cholerae = assay: Antibacterial activity against Vibrio cholerae by broth microdilution method; format: functional
Vibrio parahaemolyticus [16] = assay: Antibacterial activity against Vibrio parahaemolyticus by broth microdilution method; format: functional
Vibrio parahaemolyticus [17] = assay: Antibacterial activity against Vibrio parahaemolyticus assessed as percent resistant isolates by broth microdilution method; format: functional
Escherichia coli [18] = assay: Antibacterial activity against enterotoxigenic Escherichia coli assessed as percent susceptible isolates by broth microdilution method; format: functional
Escherichia coli [19] = assay: Antibacterial activity against enterotoxigenic Escherichia coli assessed as percent resistant isolates by broth microdilution method; format: functional
Escherichia coli [20] = assay: Antibacterial activity against enteropathogenic Escherichia coli assessed as percent susceptible isolates by broth microdilution method; format: functional
Escherichia coli [21] = assay: Antibacterial activity against enteropathogenic Escherichia coli assessed as percent resistant isolates by broth microdilution method; format: functional
Escherichia coli [22] = assay: Antibacterial activity against blood-borne Escherichia coli by broth microdilution method; format: functional
Escherichia coli [23] = assay: Antibacterial activity against blood-borne Escherichia coli assessed as percent resistant isolates by broth microdilution method; format: functional
Escherichia coli [24] = assay: Antibacterial activity against Escherichia coli assessed as growth inhibition at 0.004 ug/ml by broth microdilution method; format: functional
Escherichia coli [25] = assay: Antibacterial activity against Escherichia coli assessed as growth inhibition at 0.008 ug/ml by broth microdilution method; format: functional
Escherichia coli [26] = assay: Antibacterial activity against Escherichia coli assessed as growth inhibition at 0.016 ug/ml by broth microdilution method; format: functional
Escherichia coli [27] = assay: Antibacterial activity against Escherichia coli assessed as growth inhibition at 0.03 ug/ml by broth microdilution method; format: functional
Escherichia coli [28] = assay: Antibacterial activity against Escherichia coli assessed as growth inhibition at 0.25 ug/ml by broth microdilution method; format: functional
Salmonella sp. [29] = assay: Antibacterial activity against Salmonella sp. assessed as growth inhibition at 0.016 ug/ml by broth microdilution method; format: functional
Salmonella sp. [30] = assay: Antibacterial activity against Salmonella sp. assessed as growth inhibition at 0.06 ug/ml by broth microdilution method; format: functional
Shigella sp. [31] = assay: Antibacterial activity against Shigella sp. assessed as growth inhibition at =<0.002 ug/ml by broth microdilution method; format: functional
Shigella sp. [32] = assay: Antibacterial activity against Shigella sp. assessed as growth inhibition at 0.03 ug/ml by broth microdilution method; format: functional
Yersinia sp. [33] = assay: Antibacterial activity against Yersinia sp. assessed as growth inhibition at 0.016 ug/ml by broth microdilution method; format: functional; details: Yersinia sp. (in: enterobacteria)
Yersinia sp. [34] = assay: Antibacterial activity against Yersinia sp. assessed as growth inhibition at 0.12 ug/ml by broth microdilution method; format: functional; details: Yersinia sp. (in: enterobacteria)
Aeromonas sp. [35] = assay: Antibacterial activity against Aeromonas sp. assessed as growth inhibition at 0.008 ug/ml by broth microdilution method; format: functional
Aeromonas sp. [36] = assay: Antibacterial activity against Aeromonas sp. assessed as growth inhibition at 0.06 ug/ml by broth microdilution method; format: functional
Aeromonas sp. [37] = assay: Antibacterial activity against Aeromonas sp. assessed as growth inhibition at 0.12 ug/ml by broth microdilution method; format: functional
Plesiomonas shigelloides [38] = assay: Antibacterial activity against Plesiomonas shigelloides assessed as growth inhibition at =<0.002 ug/ml by broth microdilution method; format: functional
Plesiomonas shigelloides [39] = assay: Antibacterial activity against Plesiomonas shigelloides assessed as growth inhibition at 0.004 ug/ml by broth microdilution method; format: functional
Plesiomonas shigelloides [40] = assay: Antibacterial activity against Plesiomonas shigelloides assessed as growth inhibition at 0.008 ug/ml by broth microdilution method; format: functional
Vibrio sp. [41] = assay: Antibacterial activity against Vibrio sp. assessed as growth inhibition at =<0.002 ug/ml by broth microdilution method; format: functional
Vibrio sp. [42] = assay: Antibacterial activity against Vibrio sp. assessed as growth inhibition at 0.004 ug/ml by broth microdilution method; format: functional
Vibrio sp. [43] = assay: Antibacterial activity against Vibrio sp. assessed as growth inhibition at 0.008 ug/ml by broth microdilution method; format: functional
Campylobacter sp. [44] = assay: Antibacterial activity against Campylobacter sp. assessed as growth inhibition at 0.008 ug/ml by broth microdilution method; format: functional

Molecule `CC1Sc2c(C(=O)O)c(=O)c3cc(F)c(N4CCNCC4)cc3n21` (stereo not given) [ULIFLOXACIN] has an inhibition at 0.016 µg/mL (Campylobacter sp. [1]) of 8%, an inhibition at 0.03 µg/mL (Campylobacter sp. [2]) of 61% and an inhibition at 0.06 µg/mL (Campylobacter sp. [3]) of 77%. It also gave an inhibition at 0.25 µg/mL (Campylobacter sp. [4]) of 83%, an inhibition at 0.5 µg/mL (Campylobacter sp. [5]) of 83% and an inhibition at 2 µg/mL (Campylobacter sp. [6]) of 85%. The “inhibition (INH)” value (Campylobacter sp. [7]) was 100%, the MIC50 (Escherichia coli [8]) was 8 ng/mL (≈ 0.0229 µM) and the MIC90 (Escherichia coli [8]) was 8 ng/mL (≈ 0.0229 µM). For the same molecule, the MIC50 (Salmonella typhimurium) was 8 ng/mL (≈ 0.0229 µM), the MIC90 (Salmonella typhimurium) was 0.03 µg/mL (≈ 0.0859 µM) and the Activity (Salmonella paratyphi) was 100%. It also gave an MIC50 [9] of 8 ng/mL (≈ 0.0229 µM), an MIC90 [9] of 0.03 µg/mL (≈ 0.0859 µM) and an MIC50 [10] of 8 ng/mL (≈ 0.0229 µM). The MIC90 [10] was 0.03 µg/mL (≈ 0.0859 µM), the MIC50 (Shigella sonnei) was 4 ng/mL (≈ 0.0114 µM) and the MIC90 (Shigella sonnei) was 8 ng/mL (≈ 0.0229 µM). For the same molecule, the MIC50 (Shigella boydii) was 4 ng/mL (≈ 0.0114 µM), the MIC90 (Shigella boydii) was 8 ng/mL (≈ 0.0229 µM) and the MIC50 (Shigella dysenteriae) was 4 ng/mL (≈ 0.0114 µM). It also gave an MIC90 (Shigella dysenteriae) of 8 ng/mL (≈ 0.0229 µM), an Activity (Aeromonas hydrophila) of 2% and an Activity (Aeromonas caviae) of 98%. The Activity (Aeromonas sobria [11]) was 98%, the Activity (Aeromonas sobria [12]) was 2% and the MIC (Plesiomonas shigelloides [13]) was 4 ng/mL (≈ 0.0114 µM). It also gave an MIC50 (Plesiomonas shigelloides [13]) of 4 ng/mL (≈ 0.0114 µM), an Activity (Plesiomonas shigelloides [14]) of 100% and an Activity (Plesiomonas shigelloides [15]) of 0%. For the same molecule, the MIC50 (Vibrio cholerae) was 0.016 µg/mL (≈ 0.0458 µM), the MIC90 (Vibrio cholerae) was 0.03 µg/mL (≈ 0.0859 µM) and the MIC50 (Vibrio parahaemolyticus [16]) was 0.016 µg/mL (≈ 0.0458 µM). The MIC90 (Vibrio parahaemolyticus [16]) was 0.03 µg/mL (≈ 0.0859 µM), the Activity (Vibrio parahaemolyticus [17]) was 0% and the Activity (Escherichia coli [18]) was 100%. It also gave an Activity (Escherichia coli [19]) of 0%, an Activity (Escherichia coli [20]) of 100% and an Activity (Escherichia coli [21]) of 0%. It also gave an MIC50 (Escherichia coli [22]) of 8 ng/mL (≈ 0.0229 µM), an MIC90 (Escherichia coli [22]) of 0.06 µg/mL (≈ 0.172 µM) and an MIC50 (Escherichia coli [22]; Escherichia coli, read-out: MIC50) of 8 ng/mL (≈ 0.0229 µM). It also gave an MIC90 (Escherichia coli [22]; Escherichia coli, read-out: MIC90) of 0.06 µg/mL (≈ 0.172 µM), an Activity (Escherichia coli [23]) of 10% and an inhibition at 0.004 µg/mL (Escherichia coli [24]) of 27%. It also gave an inhibition at 0.008 µg/mL (Escherichia coli [25]) of 93%, an inhibition at 0.016 µg/mL (Escherichia coli [26]) of 94% and an inhibition at 0.03 µg/mL (Escherichia coli [27]) of 96%. The inhibition at 0.25 µg/mL (Escherichia coli [28]) was 97%, the inhibition at 0.016 µg/mL (Salmonella sp. [29]) was 85% and the inhibition at 0.06 µg/mL (Salmonella sp. [30]) was 97%. For the same molecule, the “inhibition (INH)” value (Shigella sp. [31]) was 1%, the inhibition at 0.03 µg/mL (Shigella sp. [32]) was 99% and the inhibition at 0.016 µg/mL (Yersinia sp. [33]) was 93%. The inhibition at 0.12 µg/mL (Yersinia sp. [34]) was 100%, the inhibition at 0.008 µg/mL (Aeromonas sp. [35]) was 68% and the inhibition at 0.06 µg/mL (Aeromonas sp. [36]) was 92%. The inhibition at 0.12 µg/mL (Aeromonas sp. [37]) was 93%, the “inhibition (INH)” value (Plesiomonas shigelloides [38]) was 0% and the inhibition at 0.004 µg/mL (Plesiomonas shigelloides [39]) was 75%. The inhibition at 0.008 µg/mL (Plesiomonas shigelloides [40]) was 100%, the “inhibition (INH)” value (Vibrio sp. [41]) was 15% and the inhibition at 0.004 µg/mL (Vibrio sp. [42]) was 35%. The inhibition at 0.008 µg/mL (Vibrio sp. [43]) was 40% and the inhibition at 0.008 µg/mL (Campylobacter sp. [44]) was 2%.
